These results are taken from US7611713B2 (priority 1999, dated 2009).

No end group written: not given here.

One assay relates to T helper lymphocytes. As to conditions: individuals regardless of HLA type; cited from earlier work.
Another assay addresses B*0702 (Homo sapiens, UniProt P01889). In words: biochemical. The assay is classed as binding.
The next assay has as its target B*5301 (Homo sapiens, UniProt P01889, A329T/A93T/A95T/C349S/D201E/D98Y/E176V/E187L/E204Q/E69T/G107R/I218V/K202T/L105A/L119I/N104I/Q94N/R106L/R155S/R180L/S101N/S121R/S35A/S48A/T118I/V127L/V306I/V36M/Y140S/Y91F). Nature of the assay: HLA class I peptide binding assay, B*5301.
In a further assay the target is B*5401 (Homo sapiens, UniProt P01889, A329T/C349S/D138N/D201E/E176V/E187T/E204Q/E69G/I76V/K202T/L119W/R155S/R180L/S121T/S35A/S48A/V127L/V306I/V36M/Y140L). In words: biochemical. Type of assay: binding.
The next assay deals with B*3501 (Homo sapiens, UniProt P01889, A329T/A93T/A95T/C349S/D201E/D98Y/E176V/E187L/E204Q/E69T/I218V/K202T/L119I/Q94N/R155S/R180L/S121R/S35A/S48A/T118I/V127L/V306I/V36M/Y140S/Y91F). In words: HLA class I peptide binding assay, B*3501.

In the case of aKXVWANTLKAAa, the “stimulation of T helper lymphocyte response” value in the assay on T helper lymphocytes is given as “stimulate the response of T helper lymphocytes from most individuals”.
Consider FPHCLAFAL [Peptide 2509], for which the IC50 at B*0702 was 25 nM; at B*5301, 5 nM; on B*5401 it was 24 nM.
Turning to FPHCLAFSI [Peptide 2512], the figures for the IC50 against B*0702, at B*5301 and at B*5401 were 675 nM, 3.8 nM and 1 nM, respectively.
On B*0702, FPIPSSWAF [Peptide 2506] yielded an IC50 of 24 nM.
For FPFCLAFSY [Peptide 2511], the 50% inhibitory concentration (IC50) was determined as 4.8 nM on B*5301, 6.5 nM on B*3501 and 5.1 nM against B*5401.
As to FPHCLAFSA [Peptide 2513], the IC50 against B*0702 came to 3670 nM; on B*5301, 137 nM; on B*3501, 6.5 nM; at B*5401, 0.6 nM.
Turning to FPHCLAFSL [Peptide 2510], the results for the IC50 against B*0702 and at B*5301 were 74 nM and 15 nM, respectively.

As a reminder, the IC50 is the concentration at which inhibition is half-maximal. A high value points to lower potency.
